Where two headings read alike, the source gives them in different places. Ends that are not written are not given here.
Tests used:
[1] = test system: LPS (P. aeruginosa); test: Dansyl polymyxin B (DPX) displacement assay, LPS binding; details: DPX bound to P. aeruginosa LPS; for IC50: read-out: I50 (concentration that displaces 50% of LPS-bound DPX)
Method: The Dansyl polymyxin B (DPX) displacement assay was carried out as described earlier. In brief, the fluorescence of DPX (Invitrogen) bound to LPS (P. aeruginosa) was measured by using a Luminescence spectrometer LS 50B (Perkin Elmer) with excitation and emission-wavelengths of 340 nm and 485 nm, respectively. A predetermined amount of DPX, resulting in 90% saturation of LPS, was added to 1 mL of 3 μg/mL of purified LPS. Small aliquots (5 μL of 1 μg/mL) of test compounds were added under constant stirring in the cuvette, and the displacement of DPX was measured for 30–60 seconds as a decrease in fluorescence. The process was repeated until maximum displacement was reached.
The ability of other cationic molecules to displace DPX molecules bound to LPS (monitored by reduction in fluorescence) assesses their relative ability to bind to LPS [33, 34]. While the highly cationic MSI-78 (+10 charge) displaced 100% of bound DPX (equivalent to that of polymyxin B), peptoid 1 and MX-226 displaced 71% and 73% of bound DPX, respectively. […] A second parameter characterizing the LPS/polycation interaction is the I50, which is defined as the concentration of a polycation that displaces 50% of LPS-bound DPX. The I50 is inversely related to the relative affinity of each molecule for binding sites on LPS.

[2] = test system: 20 bacterial strains (13 Gram-negative, 7 Gram-positive); details: out of the 20 pathogens tested
Method: The MICs of test agents were measured using a modified broth micro-dilution method in Difco Mueller Hinton medium, on a panel of bacterial pathogens that were both susceptible and resistant to common antibiotics (S1 File). Briefly, serial dilutions were performed in 0.01% acetic acid containing 0.2% bovine serum albumin at 10-fold the desired final concentration. Ten μL of the 10-fold concentrated test reagents were added to each well of a 96-well polypropylene microtitre plate containing 90 μL of Mueller Hinton media per well. Bacteria were added to the plate from an overnight culture at a final concentration of 2–7 x 10^5 CFU/mL and incubated overnight at 37°C. The MIC is defined as the concentration at which no growth was observed.
Screening of peptoid antimicrobial activity against a panel of multidrug resistant superbugs was done according to the protocol described in the manuscript. The bacterial strains used in this panel included; P. aeruginosa PAO1 strain H103 [1], P. maltophilia ATCC#13637, S. aureus ATCC#25923 [1], E. faecalis ATCC#29212 [2], and E. cloacae 218R, constitutively expressing Class C chromosomal β-lactamase, were from the Hancock lab strains collection. An MRSA clinical isolate was kindly provided by Anthony Chow (Vancouver General Hospital, Vancouver, Canada). Two Klebsiella pneumoniae and two E. coli clinical isolates expressing extended spectrum β-lactamases (ESBL) were kindly provided by George Zhanel (Health Sciences Centre, Winnipeg, Canada). Vancomycin-resistant clinical isolates of Enterococcus faecalis and E. faecium were obtained from Ana M. Paccagnella (BC Centre for Disease Control, Vancouver, Canada). Three clinical isolates (#9, #198 and #213) of multi-drug resistant P. aeruginosa, were kindly provided by Carlos Kiffer (University of São Paulo, Brazil). […] Three P. aeruginosa clinical isolates of the Liverpool epidemic strain (LES) (H1027, H1030 and LES400) were all kindly provided by Craig Winstanley (University of Liverpool, UK). […] All tested bacterial strains were categorized as biohazard level 2 pathogens.

[3] = test system: P. aeruginosa H1027 (MDR); test: microbe, parasite or virus in culture; details: H1027 (MDR)
Summary of the method: (§1)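 Modified broth microdilution in Mueller Hinton medium in polypropylene plates; test agents serially diluted in 0.01% acetic acid with 0.2% BSA at 10-fold final concentration.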

[4] = test system: E. cloacae 218R Class C β-lactamase; test: microbe, parasite or virus in culture; details: 218R Class C β-lactamase
Summary of the method: as §1

[5] = test system: E. coli 63103 (ESBL); test: microbe, parasite or virus in culture; details: 63103 (ESBL)
Summary of the method: as §1

[6] = test system: E. coli 64771 (ESBL); test: microbe, parasite or virus in culture; details: 64771 (ESBL)
Summary of the method: as §1

[7] = test system: P. aeruginosa H103 (wild type); test: microbe, parasite or virus in culture; details: H103 (wild type)
Summary of the method: as §1

[8] = test system: P. maltophilia ATCC13637; test: microbe, parasite or virus in culture; details: ATCC13637
Summary of the method: as §1

[9] = test system: P. aeruginosa 213 (MDR); test: microbe, parasite or virus in culture; details: 213 (MDR)
Summary of the method: as §1

[10] = test system: S. aureus C623 (MRSA); test: microbe, parasite or virus in culture; details: C623
Summary of the method: as §1

[11] = test system: S. aureus ATCC25923; test: microbe, parasite or virus in culture; details: ATCC25923
Summary of the method: as §1

[12] = test system: E. faecium mic80 (VRE); test: microbe, parasite or virus in culture; details: mic80 (VRE)
Summary of the method: as §1

[13] = test system: LPS (P. aeruginosa); parameters: method as in PMID 8702613; details: divalent cation; read-out: I50 (affinity for LPS); cited from earlier work
[14] = test system: MDR P. aeruginosa (polymyxin B resistant isolate); parameters: method as in PMID 19635950; details: MDR P. aeruginosa isolate most resistant to peptoid 1; cited from earlier work

Row | Molecule | bound DPX displaced (maximum displacement) [1] [%] | IC50 [1] [µM] | number of pathogens with MIC ≤ 8 μg/mL [2] | MIC [3] [µg/mL] | MIC [4] [µg/mL] | MIC [5] [µg/mL] | MIC [6] [µg/mL] | MIC [7] [µg/mL] | MIC [8] [µg/mL] | MIC [9] [µg/mL] | MIC [10] [µg/mL] | MIC [11] [µg/mL] | MIC [12] [µg/mL] | IC50 [13] [µM] | MIC [14] [µg/mL]
1 | ILRWPWWPWRRK-NH2 (C-terminus assumed) [MX-226, Omiganan, reference compound] | 73 | 5 | none | 64 | 16 | 64 | 64 | 32 | 32 | 64 | 32 | 16 | 64 |  | 
2 | [Mg+2] [Mg^2+] |  |  |  |  |  |  |  |  |  |  |  |  |  | 620 | 
3 | polymyxin B | 100 | 3.2 |  |  |  |  |  |  |  |  |  |  |  |  | 64

Source: paper PMC4744035, “In Vivo, In Vitro, and In Silico Characterization of Peptoids as Antimicrobial Agents” (PLoS ONE, 2016)
